Results published in patent US7138361B2, “Herbicidal heterocycles” (E. I. du Pont de Nemours and Company, priority 2000, dated 2006).

What was measured:
Format in all cases: in vivo
[1] = system: barnyardgrass (Echinochloa crus-galli); test: Test B flooded paddy test; conditions: Rate 1000 g/ha, scale of 0 to 100 where 0 is no effect and 100 is complete control, visually evaluated after 13 to 15 days
In short: (§1)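 Rice, smallflower flatsedge, duck salad and barnyardgrass grown to 2-leaf stage in flooded paddy and treated with test chemicals. Plants kept in greenhouse 13 to 15 days, then visually rated against controls. Scale 0 (no effect) to 100 (complete control).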

[2] = system: smallflower flatsedge (Cyperus difformis); test: Test B flooded paddy test; conditions: Rate 1000 g/ha, scale of 0 to 100 where 0 is no effect and 100 is complete control, visually evaluated after 13 to 15 days
In short: as §1

rice (Oryza saliva) [3] = test: Test B flooded paddy test; conditions: Rate 1000 g/ha, scale of 0 to 100 where 0 is no effect and 100 is complete control, visually evaluated after 13 to 15 days
In short: as §1

[4] = system: duck salad (Heteranthera limosa); test: Test B flooded paddy test; conditions: Rate 1000 g/ha, scale of 0 to 100 where 0 is no effect and 100 is complete control, visually evaluated after 13 to 15 days
In short: as §1

Sunflower = test: Test C preemergence; conditions: Rate 62 g/ha, scale 0 to 100
[5] = system: barnyardgrass (Echinochloa crus-galli); test: Test C flooded paddy test; conditions: for Barnyardgrass plant response rating: Flooded Paddy, scale 0 to 100, 0 no effect, 100 complete control; for Plant response rating, Barnyardgrass: flooded paddy test, scale 0 to 100 (0 no effect, 100 complete control)
In short: (§2)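 2-leaf-stage plants, flooded paddy; treated; greenhouse 12–14 days; compared with controls by eye; rated 0–100 (0 none, 100 complete control).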

rice (Oryza saliva) [6] = test: Test C flooded paddy test; conditions: for Rice plant response rating: Flooded Paddy, scale 0 to 100, 0 no effect, 100 complete control; for Plant response rating, Rice: flooded paddy test, scale 0 to 100 (0 no effect, 100 complete control)
In short: as §2

[7] = system: duck salad (Heteranthera limosa); test: Test C flooded paddy test; conditions: for Ducksalad plant response rating: Flooded Paddy, scale 0 to 100, 0 no effect, 100 complete control; for Plant response rating, Ducksalad: flooded paddy test, scale 0 to 100 (0 no effect, 100 complete control)
In short: as §2

[8] = system: cocklebur (Xanthium strumarium); test: Test C postemergence
In short: (§3)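 Plants held in greenhouse for 12–14 days post-application are scored by eye against controls on a 0–100 control scale. Application timing: preemergence on sown seed, or postemergence on 2–18 cm plants.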

[9] = system: chickweed (Stellaria media); test: Test C postemergence
In short: as §3

[10] = system: morningglory (Ipomoea hederacea); test: Test C postemergence
In short: as §3

[11] = system: bermudagrass (Cynodon dactylon); test: Test C postemergence
In short: as §3

[12] = system: pigweed (Amaranthus retroflexus); test: Test C postemergence
In short: as §3

[13] = system: Surinam grass (Brachiaria decumbens); test: Test C postemergence
In short: as §3

[14] = system: woolly cupgrass (Eriochloa villosa); test: Test C postemergence
In short: as §3

corn (Zea mays) = test: Test C postemergence
In short: as §3

[15] = system: johnsongrass (Sorghum halepense); test: Test C postemergence
In short: as §3

kochia (Kochia scoparia) = test: Test C postemergence
In short: as §3

[16] = system: giant foxtail (Setaria faberii); test: Test C postemergence
In short: as §3

[17] = system: yellow nutsedge (Cyperus esculentus); test: Test C postemergence
In short: as §3

[18] = system: crabgrass (Digitaria sanguinalis); test: Test C postemergence
In short: as §3

[19] = system: common ragweed (Ambrosia elatior); test: Test C postemergence; conditions: Rate 500 g/ha, scale 0 to 100 (0 no effect, 100 complete control)
In short: as §3

[20] = Rate 250 g/ha, scale 0 to 100 (0 no effect, 100 complete control)
[21] = Rate 500 g/ha, scale 0 to 100 (0 no effect, 100 complete control)
[22] = Rate 125 g/ha, scale 0 to 100, 0 no effect, 100 complete control

SMILES: O=C1C(n2cc(Cl)c(C3CC3)n2)CCN1c1cccc(C(F)(F)F)c1 (centres unmarked) [Compound 12]
- Plant response rating, Barnyardgrass [1]: 0
- Plant response rating, Flatsedge [2]: 30
- Plant response rating, Rice (rice (Oryza saliva) [3]): 0
- Plant response rating, Ducksalad [4]: 0

SMILES: CCC(C)c1nn(C2CCN(c3cccc(C(F)(F)F)c3)C2=O)cc1Cl (centres unmarked) [Compound 13]
- Plant response rating, Barnyardgrass [1]: 0
- Plant response rating, Flatsedge [2]: 0
- Plant response rating, Rice (rice (Oryza saliva) [3]): 0
- Plant response rating, Ducksalad [4]: 0

SMILES: CC(C)(C)c1nn(C2CCN(c3cccc(C(F)(F)F)c3)C2=O)cc1Cl (centres unmarked) [Compound 14]
- Plant response rating, Barnyardgrass [1]: 0
- Plant response rating, Flatsedge [2]: 0
- Plant response rating, Rice (rice (Oryza saliva) [3]): 0
- Plant response rating, Ducksalad [4]: 0

SMILES: O=C1C(n2cccn2)CCN1c1cccc(C(F)(F)F)c1 (centres unmarked) [Compound 15]
- Plant response rating, Barnyardgrass [1]: 0
- Plant response rating, Flatsedge [2]: 0
- Plant response rating, Rice (rice (Oryza saliva) [3]): 0
- Plant response rating, Ducksalad [4]: 0

SMILES: Cc1ccn(C2CCN(c3cccc(C(F)(F)F)c3)C2=O)n1 (centres unmarked) [Compound 16]
- Plant response rating, Barnyardgrass [1]: 0
- Plant response rating, Flatsedge [2]: 0
- Plant response rating, Rice (rice (Oryza saliva) [3]): 0
- Plant response rating, Ducksalad [4]: 0

SMILES: CC(C)(C)c1ccn(C2CCN(c3cccc(Br)c3)C2=O)n1 (centres unmarked) [Compound 33]
- Plant response rating, Barnyardgrass [1]: 0
- Plant response rating, Flatsedge [2]: 0
- Plant response rating, Rice (rice (Oryza saliva) [3]): 0
- Plant response rating, Ducksalad [4]: 0

SMILES: CCCOc1cc(N2CCC(n3ccc(C(C)(C)C)n3)C2=O)ccc1C (centres unmarked) [Compound 107]
- Plant response rating, Sunflower (Sunflower): 0
- Barnyardgrass plant response rating ([5]; Rate 250 g/ha): 70
- Barnyardgrass plant response rating ([5]; Rate 500 g/ha): 80
- Plant response rating, Barnyardgrass ([5]; Rate 62 g/ha): 20
- Plant response rating, Barnyardgrass ([5]; Rate 125 g/ha): 30
- Rice plant response rating (rice (Oryza saliva) [6]; Rate 250 g/ha): 0
- Rice plant response rating (rice (Oryza saliva) [6]; Rate 500 g/ha): 20
- Plant response rating, Rice (rice (Oryza saliva) [6]; Rate 62 g/ha): 0
- Plant response rating, Rice (rice (Oryza saliva) [6]; Rate 125 g/ha): 0
- Ducksalad plant response rating ([7]; Rate 250 g/ha): 0
- Ducksalad plant response rating ([7]; Rate 500 g/ha): 70
- Plant response rating, Ducksalad ([7]; Rate 62 g/ha): 0
- Plant response rating, Ducksalad ([7]; Rate 125 g/ha): 0
- Plant response rating, Cocklebur ([8]; Rate 62 g/ha, scale 0 to 100): 0
- Plant response rating, Cocklebur [8, 20]: 30
- Plant response rating, Cocklebur [8, 21]: 80
- Plant response rating, Chickweed ([9]; Rate 62 g/ha, scale 0 to 100): 50
- Plant response rating, Chickweed [9, 22]: 100
- Plant response rating, Chickweed [9, 20]: 100
- Plant response rating, Chickweed [9, 21]: 100
- Plant response rating, Morningglory ([10]; Rate 62 g/ha, scale 0 to 100): 60
- Plant response rating, Morningglory [10, 20]: 100
- Plant response rating, Morningglory [10, 21]: 100
- Plant response rating, Bermudagrass ([11]; Rate 62 g/ha, scale 0 to 100): 0
- Plant response rating, Bermudagrass [11, 22]: 0
- Plant response rating, Bermudagrass [11, 20]: 0
- Plant response rating, Bermudagrass [11, 21]: 0
- Plant response rating, Pigweed ([12]; Rate 62 g/ha, scale 0 to 100): 50
- Plant response rating, Pigweed [12, 20]: 55
- Plant response rating, Pigweed [12, 21]: 90
- Plant response rating, Surinam grass ([13]; Rate 62 g/ha, scale 0 to 100): 0
- Plant response rating, Surinam grass [13, 22]: 0
- Plant response rating, Surinam grass [13, 20]: 0
- Plant response rating, Surinam grass [13, 21]: 0
- Plant response rating, Cupgrass, Woolly ([14]; Rate 62 g/ha, scale 0 to 100): 0
- Plant response rating, Cupgrass, Woolly [14, 20]: 0
- Plant response rating, Cupgrass, Woolly [14, 21]: 0
- Plant response rating, Corn (corn (Zea mays); Rate 62 g/ha, scale 0 to 100): 0
- Plant response rating, Corn (corn (Zea mays); [20]): 0
- Plant response rating, Corn (corn (Zea mays); [21]): 0
- Plant response rating, Corn (corn (Zea mays); scale 0 to 100): 0
- Plant response rating, Johnsongrass ([15]; Rate 62 g/ha, scale 0 to 100): 0
- Plant response rating, Johnsongrass [15, 20]: 0
- Plant response rating, Johnsongrass [15, 21]: 0
- Plant response rating, Johnsongrass ([15]; rate not given, scale 0 to 100): 0
- Plant response rating, Kochia (kochia (Kochia scoparia); Rate 62 g/ha, scale 0 to 100): 70
- Plant response rating, Kochia (kochia (Kochia scoparia); [20]): 80
- Plant response rating, Kochia (kochia (Kochia scoparia); [21]): 85
- Plant response rating, Foxtail, Giant ([16]; Rate 62 g/ha, scale 0 to 100): 0
- Plant response rating, Foxtail, Giant [16, 20]: 0
- Plant response rating, Foxtail, Giant [16, 21]: 0
- Plant response rating, Nutsedge ([17]; Rate 62 g/ha, scale 0 to 100): 0
- Plant response rating, Nutsedge [17, 20]: 0
- Plant response rating, Nutsedge [17, 21]: 0
- Plant response rating, Crabgrass ([18]; Rate 62 g/ha, scale 0 to 100): 0
- Plant response rating, Crabgrass [18, 20]: 0
- Plant response rating, Crabgrass [18, 21]: 20
- Plant response rating, Ragweed, Common [19]: 50

SMILES: CC(C)(C)c1ccn(C2OCN(c3cccc(C(F)(F)F)c3)C2=O)n1 (centres unmarked) [compound 9]
- Plant response rating, Barnyardgrass [1]: 100
- Plant response rating, Flatsedge [2]: 100
- Plant response rating, Rice (rice (Oryza saliva) [3]): 100
- Plant response rating, Ducksalad [4]: 100
